The target of one test is androgen receptor (hAR) (Homo sapiens (Human), UniProt P10275). The test can be described thus: Test of transcriptional activity (hAR / ARE-Luc dual-luciferase assay in CHO cells). The conditions noted are these: CHO cells with hAR and ARE-Luc, 24 hours, 10 nM DHT = 100%. Type of test: cell-based. Put shortly:
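CHO cells cultured 24 h, then transfected with hAR and ARE-Luc plasmids. Transfected cells treated with 0.1˜10,000 nM compound for 24 h; transcriptional activity read by dual-luciferase reporter.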

The test system of another test is castrated male rats. The test is described as follows: Efficacy test in castrated male rat (Hershberger assay). Type of test: in vivo, SD (Sprague-Dawley) rat. The note with it: castrated male SD rats, oral once a day for 14 days. How it is done: SD (Sprague-Dawley) male rats (7-week-old) were castrated under ketamine/xylazine anesthesia, and 5 rats were randomly assigned to one group. From the next day, the agonists were dissolved in a vehicle solution and orally administered at a dose of 5 ml per kg once a day for 14 days. As the vehicle, DMSO, Co-solvent, and DW were prepared at a ratio of 4:80:16 (v/v/v), and Co-solvent was prepared by mixing PEG400, Ethanol, and Tween 80 at a ratio of 85:10:5 (v/v/v). 24 hours after last administration of the drug, their body weight was measured and killed. Thereafter, levator ani muscle, ventral prostate, and seminal vesicles were removed and weighed (Hershberger assay). The following Table 6 represents the result of the efficacy test in castrated male rats.

As usually defined, the EC50 is the midpoint of the concentration-response curve.

Read-outs that look alike come from different tables or passages of the source.

Chain of androgen receptor (hAR) (P10275 whole entry): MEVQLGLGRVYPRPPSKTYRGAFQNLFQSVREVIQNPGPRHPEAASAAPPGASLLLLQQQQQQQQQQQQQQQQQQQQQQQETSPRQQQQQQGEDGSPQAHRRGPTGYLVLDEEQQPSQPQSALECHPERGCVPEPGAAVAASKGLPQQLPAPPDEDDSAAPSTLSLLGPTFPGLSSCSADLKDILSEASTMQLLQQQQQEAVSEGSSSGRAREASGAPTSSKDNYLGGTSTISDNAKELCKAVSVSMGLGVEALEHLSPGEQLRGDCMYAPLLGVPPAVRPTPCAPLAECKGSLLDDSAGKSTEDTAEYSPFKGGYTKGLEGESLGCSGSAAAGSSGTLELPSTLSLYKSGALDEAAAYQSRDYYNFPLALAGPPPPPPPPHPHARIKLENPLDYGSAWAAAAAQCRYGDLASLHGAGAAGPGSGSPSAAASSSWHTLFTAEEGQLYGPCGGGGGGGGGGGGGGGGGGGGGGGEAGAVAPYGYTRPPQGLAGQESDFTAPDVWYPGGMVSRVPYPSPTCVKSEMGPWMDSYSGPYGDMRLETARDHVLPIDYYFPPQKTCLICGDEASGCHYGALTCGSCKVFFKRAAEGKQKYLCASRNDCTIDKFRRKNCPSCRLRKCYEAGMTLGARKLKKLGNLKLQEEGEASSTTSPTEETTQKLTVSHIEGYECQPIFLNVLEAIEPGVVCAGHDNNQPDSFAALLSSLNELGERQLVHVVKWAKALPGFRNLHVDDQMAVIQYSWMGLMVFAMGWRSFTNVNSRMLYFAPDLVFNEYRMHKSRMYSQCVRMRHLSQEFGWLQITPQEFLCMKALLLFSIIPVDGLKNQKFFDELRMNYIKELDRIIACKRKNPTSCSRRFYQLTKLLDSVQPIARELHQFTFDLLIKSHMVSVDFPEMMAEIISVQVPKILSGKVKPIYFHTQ

Turning to `COC(=O)N1CCN(C(=O)[C@@H]2CN(c3ccc(C#N)c(C(F)(F)F)c3)[C@@H](C(F)(F)F)O2)CC1` [Example 173, methyl 4-((2R,5S)-3-(4-cyano-3-(trifluoromethyl)phenyl)-2-(trifluoromethyl)oxazolidine-5-carbonyl)piperazine-1-carboxylate], the EC50 at androgen receptor (hAR) (EC50 [nM] (mean ± SE)) was 5.34 nM. Moreover, the “levator ani muscle weight % relative to intact control group” value with castrated male rats (0.03 mg/kg) is 9.8 ± 0.6%; in the test with castrated male rats (0.1 mg/kg) it was 15.0 ± 1.2%; in the test on castrated male rats (0.3 mg/kg), 37.5 ± 2.3%; with castrated male rats (1 mg/kg), 61.1 ± 9.9%; with castrated male rats (3 mg/kg) it was 69.9 ± 3.6%; with castrated male rats (10 mg/kg), 93.0 ± 11.0%. The entries for the “levator ani muscle weight % relative to intact control group” value with castrated male rats (30 mg/kg) and in the test on castrated male rats (100 mg/kg) were 91.4 ± 8.2% and 99.5 ± 13.0%, respectively. Moreover, the “seminal vesicles weight % relative to intact control group” value in the test with castrated male rats (0.03 mg/kg) was 1.3 ± 0.4%; in the test with castrated male rats (0.1 mg/kg) it was 1.3 ± 0.3%; in the test on castrated male rats (0.3 mg/kg), 2.9 ± 0.3%; in the test on castrated male rats (1 mg/kg), 5.9 ± 2.1%; in the test with castrated male rats (3 mg/kg), 20.3 ± 4.8%; in the test with castrated male rats (10 mg/kg), 34.5 ± 4.0%. Also, the “seminal vesicles weight % relative to intact control group” value in the test with castrated male rats (30 mg/kg) is 45.5 ± 8.6%; in the test with castrated male rats (100 mg/kg) it was 52.8 ± 10.6%. The “ventral prostate weight % relative to intact control group” value with castrated male rats (0.03 mg/kg) stood at 0.6 ± 0.1%; with castrated male rats (0.1 mg/kg), 3.2 ± 0.6%; in the test on castrated male rats (0.3 mg/kg), 3.5 ± 0.5%; in the test with castrated male rats (1 mg/kg), 9.1 ± 2.1%; in the test with castrated male rats (3 mg/kg) it was 12.4 ± 3.5%; in the test on castrated male rats (10 mg/kg), 24.4 ± 2.0%. The “ventral prostate weight % relative to intact control group” value with castrated male rats (30 mg/kg) is 33.2 ± 3.3%; in the test with castrated male rats (100 mg/kg) it was 48.6 ± 9.3%.

Turning to `COC(=O)Nc1ccc(OC[C@@H]2CN(c3ccc(C#N)c(C(F)(F)F)c3)[C@@H](C(F)(F)F)O2)cc1` [Example 36, methyl(4-(((2R,5S)-3-(4-cyano-3-(trifluoromethyl)phenyl)-2-(trifluoromethyl)oxazolidin-5-yl)methoxy)phenyl)carbamate], the EC50 on androgen receptor (hAR) (EC50 [nM] (mean ± SE)) amounted to 8.1 ± 1.9 nM. Also, the “levator ani muscle weight % relative to intact control group” value was found to be 18.6 ± 2.2% with castrated male rats (0.1 mg/kg); 18.8 ± 2.7% in the test with castrated male rats (0.3 mg/kg); 53.9 ± 6.5% in the test on castrated male rats (1 mg/kg); 47.0 ± 2.6% in the test with castrated male rats (3 mg/kg); 55.2 ± 10.3% in the test with castrated male rats (10 mg/kg); 58.2 ± 5.8% with castrated male rats (30 mg/kg). Moreover, in the test on castrated male rats (100 mg/kg), the “levator ani muscle weight % relative to intact control group” value amounted to 65.3 ± 7.9%. Also, the “seminal vesicles weight % relative to intact control group” value in the test with castrated male rats (0.1 mg/kg) is 2.4 ± 0.6%; in the test with castrated male rats (0.3 mg/kg) it was −0.2 ± 0.0%; in the test with castrated male rats (1 mg/kg), 4.7 ± 1.0%; in the test with castrated male rats (3 mg/kg) it was 3.0 ± 0.7%; in the test with castrated male rats (10 mg/kg) it was 4.7 ± 0.7%; in the test with castrated male rats (30 mg/kg) it was 10.4 ± 3.1%. The “seminal vesicles weight % relative to intact control group” value in the test with castrated male rats (100 mg/kg) stood at 16.1 ± 4.0%. Besides, the “ventral prostate weight % relative to intact control group” value with castrated male rats (0.1 mg/kg) is listed as 1.0 ± 0.1%; with castrated male rats (0.3 mg/kg), 0.6 ± 0.1%; with castrated male rats (1 mg/kg) it was 8.0 ± 1.6%; in the test with castrated male rats (3 mg/kg) it was 4.7 ± 1.9%; in the test with castrated male rats (10 mg/kg) it was 5.8 ± 0.8%; in the test on castrated male rats (30 mg/kg), 10.8 ± 3.1%. Further, in the test with castrated male rats (100 mg/kg), the “ventral prostate weight % relative to intact control group” value amounted to 12.6 ± 3.1%.

Take “(2R,5S)-3-(3-chloro-4-cyanophenyl)-N-(2-chloropyridin-4-yl)-2-(trifluoromethyl)oxazolidine-5-carboxamide [Example 136]”: the EC50 on androgen receptor (hAR) (read-out: EC50 [nM] (mean ± SE)) turned out to be 5.07 nM. Besides, the “levator ani muscle weight % relative to intact control group” value is listed as 3.7 ± 0.8% with castrated male rats (0.03 mg/kg); 4.5 ± 0.9% with castrated male rats (0.1 mg/kg); 10.0 ± 0.8% with castrated male rats (0.3 mg/kg); 29.1 ± 3.3% with castrated male rats (1 mg/kg); 36.6 ± 3.4% in the test on castrated male rats (3 mg/kg); 61.8 ± 3.1% with castrated male rats (10 mg/kg). For the same compound, the “levator ani muscle weight % relative to intact control group” value is 81.4 ± 10.9% with castrated male rats (30 mg/kg) and 98.5 ± 7.7% in the test with castrated male rats (100 mg/kg). The “seminal vesicles weight % relative to intact control group” value with castrated male rats (0.03 mg/kg) is on record as −0.1 ± 0.0%; in the test on castrated male rats (0.1 mg/kg) it was −0.4 ± 0.1%; in the test on castrated male rats (0.3 mg/kg) it was 0.8 ± 0.1%; in the test on castrated male rats (1 mg/kg), 0.9 ± 0.2%; in the test on castrated male rats (3 mg/kg), 2.4 ± 0.7%; with castrated male rats (10 mg/kg), 11.0 ± 3.6%. Also, the “seminal vesicles weight % relative to intact control group” value in the test with castrated male rats (30 mg/kg) amounted to 35.8 ± 14.4%; with castrated male rats (100 mg/kg) it was 57.8 ± 17.9%. Besides, the “ventral prostate weight % relative to intact control group” value in the test with castrated male rats (0.03 mg/kg) is 1.7 ± 0.5%; with castrated male rats (0.1 mg/kg) it was −0.6 ± 0.3%; in the test on castrated male rats (0.3 mg/kg), 1.2 ± 0.3%; in the test on castrated male rats (1 mg/kg) it was 2.6 ± 0.4%; in the test on castrated male rats (3 mg/kg) it was 4.1 ± 0.9%; in the test with castrated male rats (10 mg/kg) it was 10.5 ± 3.7%. In addition, the “ventral prostate weight % relative to intact control group” value was found to be 25.4 ± 7.8% with castrated male rats (30 mg/kg) and 42.1 ± 7.5% in the test with castrated male rats (100 mg/kg).

For `N#Cc1ccc(OC[C@@H]2CN(c3ccc(C#N)c(C(F)(F)F)c3)[C@@H](C(F)(F)F)O2)cn1` [Example 44, 5-(((2R,5S)-3-(4-cyano-3-(trifluoromethyl)phenyl)-2-(trifluoromethyl)oxazolidin-5-yl)methoxy)picolinonitrile], at androgen receptor (hAR) (EC50 [nM] (mean ± SE)), the EC50 was found to be 2.6 ± 0.4 nM. For the same compound, the “levator ani muscle weight % relative to intact control group” value in the test with castrated male rats (0.1 mg/kg) was 43.3 ± 8.1%; in the test with castrated male rats (0.3 mg/kg) it was 66.6 ± 8.7%; in the test with castrated male rats (1 mg/kg) it was 82.4 ± 10.2%; in the test with castrated male rats (3 mg/kg), 92.1 ± 6.5%; in the test on castrated male rats (10 mg/kg), 87.0 ± 7.5%; in the test on castrated male rats (30 mg/kg) it was 74.2 ± 2.8%. In addition, the “levator ani muscle weight % relative to intact control group” value with castrated male rats (100 mg/kg) turned out to be 90.5 ± 6.5%. The “seminal vesicles weight % relative to intact control group” value in the test with castrated male rats (0.1 mg/kg) is given as 6.7 ± 1.5%; with castrated male rats (0.3 mg/kg) it was 16.9 ± 6.7%; in the test with castrated male rats (1 mg/kg) it was 37.9 ± 4.3%; in the test with castrated male rats (3 mg/kg), 54.5 ± 11.9%; with castrated male rats (10 mg/kg), 46.1 ± 10.8%; with castrated male rats (30 mg/kg), 49.6 ± 6.0%. Moreover, the “seminal vesicles weight % relative to intact control group” value in the test with castrated male rats (100 mg/kg) is reported as 72.4 ± 14.6%. Further, the “ventral prostate weight % relative to intact control group” value in the test on castrated male rats (0.1 mg/kg) is recorded as 7.0 ± 3.2%; with castrated male rats (0.3 mg/kg), 13.6 ± 5.0%; in the test with castrated male rats (1 mg/kg) it was 26.1 ± 5.2%; with castrated male rats (3 mg/kg), 38.7 ± 8.3%; with castrated male rats (10 mg/kg), 28.2 ± 5.5%; in the test on castrated male rats (30 mg/kg), 34.7 ± 4.1%. Besides, the “ventral prostate weight % relative to intact control group” value with castrated male rats (100 mg/kg) was determined as 39.9 ± 4.7%.

The record behind these values is US9809583B2 (priority 2014, dated 2017).
